In ChEMBL document CHEMBL1138162, “Phenyl ureas of creatinine as mGluR5 antagonists. A structure-activity relationship study of fenobam analogues” (Bioorg Med Chem Lett, 2006):

Target: Metabotropic glutamate receptor 5 (Homo sapiens, UniProt P41594)
Assay: Inhibition of glutamate-induced calcium influx in human mGluR5d by FLIPR
Type: functional
Settings: not given; call rule not given here

Sequence of Metabotropic glutamate receptor 5 (Homo sapiens, UniProt P41594) (P41594 whole entry): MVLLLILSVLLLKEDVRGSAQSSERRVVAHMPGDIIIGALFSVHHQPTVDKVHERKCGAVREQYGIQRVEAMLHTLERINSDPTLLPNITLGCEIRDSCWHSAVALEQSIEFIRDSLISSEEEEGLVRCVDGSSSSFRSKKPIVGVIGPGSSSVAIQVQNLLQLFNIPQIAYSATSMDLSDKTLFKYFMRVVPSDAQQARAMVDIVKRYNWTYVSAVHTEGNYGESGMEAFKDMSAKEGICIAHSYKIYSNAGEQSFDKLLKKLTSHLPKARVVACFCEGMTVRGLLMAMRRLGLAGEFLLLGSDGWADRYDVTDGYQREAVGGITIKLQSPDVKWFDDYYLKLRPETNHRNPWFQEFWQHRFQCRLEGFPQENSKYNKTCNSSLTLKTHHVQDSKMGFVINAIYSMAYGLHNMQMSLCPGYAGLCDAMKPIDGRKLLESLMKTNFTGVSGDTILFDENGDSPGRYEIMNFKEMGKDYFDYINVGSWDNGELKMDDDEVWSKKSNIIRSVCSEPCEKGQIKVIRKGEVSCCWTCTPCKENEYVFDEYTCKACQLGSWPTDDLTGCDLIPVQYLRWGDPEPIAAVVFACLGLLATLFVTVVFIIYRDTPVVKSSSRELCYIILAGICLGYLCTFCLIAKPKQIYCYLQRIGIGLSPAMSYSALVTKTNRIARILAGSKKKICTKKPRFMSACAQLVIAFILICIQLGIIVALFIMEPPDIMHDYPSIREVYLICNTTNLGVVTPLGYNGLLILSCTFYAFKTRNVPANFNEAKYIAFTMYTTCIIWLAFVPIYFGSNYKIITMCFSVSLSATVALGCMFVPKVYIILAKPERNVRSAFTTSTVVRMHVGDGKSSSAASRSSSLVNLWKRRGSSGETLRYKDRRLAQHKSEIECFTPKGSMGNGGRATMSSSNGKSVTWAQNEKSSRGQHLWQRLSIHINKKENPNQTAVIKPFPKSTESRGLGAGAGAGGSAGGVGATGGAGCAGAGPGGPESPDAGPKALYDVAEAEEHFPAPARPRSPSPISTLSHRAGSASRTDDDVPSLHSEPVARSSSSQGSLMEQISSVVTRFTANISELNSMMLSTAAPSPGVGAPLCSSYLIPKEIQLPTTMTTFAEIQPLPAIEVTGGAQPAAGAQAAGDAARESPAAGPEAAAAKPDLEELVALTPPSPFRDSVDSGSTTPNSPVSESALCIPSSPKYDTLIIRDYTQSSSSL

Row | SMILES | IC50
1 | CN1CC(=O)N=C1NC(=O)Cc1cccc(Cl)c1 | Not Active

Same assay, conditions: read-out: IC50

Row | SMILES | IC50
2 | O=C(NC1=NC(=O)C2CCCN12)Nc1cccc(Cl)c1 (stereo not given) | 800 nM
3 | O=C(NC1=NC(=O)C2CCCN12)Nc1ccccc1 (stereo not given) | 4200 nM
4 | CCN1CC(=O)N=C1NC(=O)Nc1cccc(Cl)c1 | 250 nM
5 | CN1CCS/C1=N\C(=O)Nc1cccc(Cl)c1 | 260 nM
6 | CCN1C(NC(=O)Nc2cccc(Cl)c2)=NC(=O)C1C (stereo not given) | 410 nM
7 | Cc1cccc(NC(=O)NC2=NC(=O)C3CCCN23)c1C (stereo not given) | > 10000 nM
8 | Cc1ccc(C)c(NC(=O)NC2=NC(=O)C3CCCN23)c1 (stereo not given) | > 10000 nM
9 | CCCCN1CC(=O)N=C1NC(=O)Nc1cccc(Cl)c1 | 680 nM
10 | CN1C(=O)CN=C1NC(=O)Nc1cccc(Cl)c1 | > 10000 nM
11 | Cn1ccnc1NC(=O)Nc1cccc(Cl)c1 | > 10000 nM
12 | Cc1ccc(NC(=O)NC2=NC(=O)C3CCCN23)cc1Cl (stereo not given) | > 10000 nM
13 | Cc1ccccc1NC(=O)NC1=NC(=O)C2CCCN12 (stereo not given) | > 10000 nM
14 | O=C(NC1=NC(=O)C2CCCN12)Nc1ccc(Cl)cc1 (stereo not given) | > 10000 nM
15 | COc1cccc(NC(=O)NC2=NC(=O)CN2C)c1 | 2800 nM
16 | Cc1cccc(NC(=O)NC2=NC(=O)CN2C)c1 | 550 nM
17 | CN1CC(=O)N=C1NC(=O)Nc1cccc(C#N)c1 | 3900 nM
18 | CN1CC(=O)N=C1NC(=O)Nc1cccc(Br)c1 | 380 nM
19 | CN1CC(=O)N/C1=N\C(=O)Nc1ccccc1 | 4900 nM
20 | CCCCCCNC(=O)NC1=NC(=O)CN1C | > 10000 nM
21 | CN1CC(=O)N=C1NC(=O)Nc1cc(Cl)cc(Cl)c1 | > 10000 nM
22 | CC1C(=O)N=C(NC(=O)Nc2cccc(Cl)c2)N1C (stereo not given) | 490 nM
23 | CN1CCC/C1=N\C(=O)Nc1cccc(Cl)c1 | 620 nM
24 | Cc1cccc(NC(=O)NC2=NC(=O)C(c3ccccc3)N2C)c1 (stereo not given) | 1400 nM
25 | Cc1cccnc1NC(=O)NC1=NC(=O)CN1C | 1900 nM
26 | Cc1ccc(NC(=O)NC2=NC(=O)CN2C)nc1 | 3100 nM
27 | CN1CC(=O)N=C1NC(=O)Nc1cccs1 | 4900 nM
28 | CN1CC(=O)N=C1NC(=O)c1cccc(Cl)c1 | 2300 nM
29 | COC(=O)c1cccc(NC(=O)NC2=NC(=O)CN2C)c1 | > 10000 nM
30 | CN1CC(=O)N=C1NC(=O)Nc1cccc(Cl)c1 [FENOBAM ANHYDROUS] | 330 nM
31 | Cc1cccc(C)c1NC(=O)/N=C1\CCCN1C [XILOBAM] | > 10000 nM

Species: Homo sapiens
Assay: Clearance in human
Type: ADME, organism-based
Settings: in vivo

Row | SMILES | CL
32 | CN1CC(=O)N=C1NC(=O)Nc1cccc(Cl)c1 [FENOBAM ANHYDROUS] | 50 µL/min/mg

Target: Metabotropic glutamate receptor 5 (Rattus norvegicus, UniProt P31424)
Assay: Displacement of [3H]MPEP from mGluR5d in rat brain membrane
Type: cell membranes
Settings: not given

Sequence of Metabotropic glutamate receptor 5 (Rattus norvegicus, UniProt P31424) (P31424 whole entry): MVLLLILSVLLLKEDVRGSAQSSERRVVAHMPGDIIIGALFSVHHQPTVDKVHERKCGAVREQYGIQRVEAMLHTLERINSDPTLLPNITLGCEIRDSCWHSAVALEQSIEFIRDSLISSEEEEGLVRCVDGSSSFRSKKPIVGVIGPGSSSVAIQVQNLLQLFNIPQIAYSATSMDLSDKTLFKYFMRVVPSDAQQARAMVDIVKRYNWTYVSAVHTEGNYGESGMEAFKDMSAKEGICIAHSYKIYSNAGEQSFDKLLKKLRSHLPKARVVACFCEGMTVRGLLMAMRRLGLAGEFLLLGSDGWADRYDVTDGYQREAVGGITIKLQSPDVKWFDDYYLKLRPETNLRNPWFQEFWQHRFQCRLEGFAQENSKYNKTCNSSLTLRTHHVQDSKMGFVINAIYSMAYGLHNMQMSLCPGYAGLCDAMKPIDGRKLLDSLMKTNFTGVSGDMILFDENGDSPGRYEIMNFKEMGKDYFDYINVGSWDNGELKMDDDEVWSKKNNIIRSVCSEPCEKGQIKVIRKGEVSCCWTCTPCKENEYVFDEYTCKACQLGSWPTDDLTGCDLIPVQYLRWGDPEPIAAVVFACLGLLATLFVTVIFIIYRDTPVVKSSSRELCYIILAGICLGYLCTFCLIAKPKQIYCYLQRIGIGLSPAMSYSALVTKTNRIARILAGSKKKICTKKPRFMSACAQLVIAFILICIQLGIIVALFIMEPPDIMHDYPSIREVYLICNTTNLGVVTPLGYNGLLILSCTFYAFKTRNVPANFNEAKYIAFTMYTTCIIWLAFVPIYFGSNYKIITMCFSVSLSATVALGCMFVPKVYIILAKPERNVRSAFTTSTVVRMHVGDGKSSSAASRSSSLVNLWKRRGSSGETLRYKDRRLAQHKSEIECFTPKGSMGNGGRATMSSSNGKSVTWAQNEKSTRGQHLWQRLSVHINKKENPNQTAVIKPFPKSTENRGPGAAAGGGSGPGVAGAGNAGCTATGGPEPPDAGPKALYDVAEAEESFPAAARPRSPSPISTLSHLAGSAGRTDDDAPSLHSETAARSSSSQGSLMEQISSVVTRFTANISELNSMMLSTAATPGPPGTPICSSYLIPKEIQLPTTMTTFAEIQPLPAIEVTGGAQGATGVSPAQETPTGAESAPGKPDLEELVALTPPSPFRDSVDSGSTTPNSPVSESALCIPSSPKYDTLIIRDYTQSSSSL

Row | SMILES | IC50
33 | O=C(NC1=NC(=O)C2CCCN12)Nc1cccc(Cl)c1 (stereo not given) | 1600 nM
34 | CCN1CC(=O)N=C1NC(=O)Nc1cccc(Cl)c1 | 180 nM
35 | CN1CCS/C1=N\C(=O)Nc1cccc(Cl)c1 | 1200 nM
36 | CCN1C(NC(=O)Nc2cccc(Cl)c2)=NC(=O)C1C (stereo not given) | 320 nM
37 | CCCCN1CC(=O)N=C1NC(=O)Nc1cccc(Cl)c1 | 1300 nM
38 | CN1C(=O)CN=C1NC(=O)Nc1cccc(Cl)c1 | > 10000 nM
39 | Cn1ccnc1NC(=O)Nc1cccc(Cl)c1 | > 10000 nM
40 | CN1CC(=O)N=C1NC(=O)Nc1cccc(C#N)c1 | 3400 nM
41 | CC1C(=O)N=C(NC(=O)Nc2cccc(Cl)c2)N1C (stereo not given) | 1300 nM
42 | CN1CCC/C1=N\C(=O)Nc1cccc(Cl)c1 | 2000 nM
43 | Cc1cccc(NC(=O)NC2=NC(=O)C(c3ccccc3)N2C)c1 (stereo not given) | > 10000 nM
44 | CN1CC(=O)N=C1NC(=O)Nc1cccc(Cl)c1 [FENOBAM ANHYDROUS] | 460 nM

Species: Rattus norvegicus
Assay: Clearance in rat
Type: ADME, organism-based
Settings: in vivo

Row | SMILES | CL
45 | CN1CC(=O)N=C1NC(=O)Nc1cccc(Cl)c1 [FENOBAM ANHYDROUS] | 50 µL/min/mg
